Measured values published in patent publication US20040087561A1, “Treatment of sexual dysfunction” (priority 2000, published 2004).

What was measured:
[1] = test system: Female New Zealand rabbits; experiment: Pelvic nerve-stimulated female genital blood flow, anaesthetised rabbit model of sexual arousal; assay type: in vivo; settings: 15 mg/kg sc
Procedure: (§1) Female New Zealand rabbits (2.5 kg) were pre-medicated with a combination of Medetomidine (Domitor®) 0.5 ml/kg im., and Ketamine (Vetalar®) 0.25 ml/kg i.m. whilst maintaining oxygen intake via a face mask. The rabbits were tracheotomised using a Portex™ uncuffed endotracheal tube 3 ID., connected to ventilator and maintained at a ventilation rate of 30-40 breaths per minute, with an approximate tidal volume of 18-20 ml, and a maximum airway pressure of 10 cm H2O. Anaesthesia was then switched to Isoflurane and ventilation continued with O2 at 2 l/min. The right marginal ear vein was cannulated using a 23G or 24G catheter, and Lactated Ringer solution perfused at 0.5 ml/min. The rabbit was maintained at 3% Isoflurane during invasive surgery, dropping to 2% for maintenance anaesthesia.
The left groin area of the rabbit was shaved and a vertical incision was made approximately 5 cm in length along the thigh. […] Systolic and diastolic pressures were measured, and the mean arterial pressure calculated using the formula (diastolic ×2+systolic)÷3. Heart rate was measured via the pulse oxymeter and Po-ne-mah data acquisition software system (Ponemah Physiology Platform, Gould Instrument Systems Inc). […] A frequency response curve was determined at the start of each experiment in order to determine the optimum frequency to use as a sub-maximal response, normally 4 Hz. […]

conscious male rat = experiment: Penile intracavernosal pressure in the conscious male rat (telemetry); assay type: in vivo
Procedure: In addition to treating women with FSD, bombesin antagonists will be useful in treating male erectile dysfunction (MED. Both the non-selective BB1/2 antagonists (Compound 1; 10 mg/kg sc) and the selective BB I receptor antagonist (Compound 3; 15 mg/kg sc) is pro-erectile in a conscious rat model of penile erection (FIGS. 24 and 25). Erectile responses were recorded by measuring intracavemosal pressure using surgically implanted telemetric device. The specific details the surgical procedures, data acquisition and analysis can be found in detail in Bernabe 1999.
Compound 1 and compound 3 were dissolved in 50% O-cyclodextrin in saline. They were administered at a dose of 15 mg/kg subcutaneously (sc). […] These increases equate to penile erection. Both Compounds 1 and 3 induced a number of erections in a similar manner to those observed with apomorphine or melanotan-II—both of which are clinically proven agents that are effective in the treatment of MED. Moreover the amplitude of the increases observed were similar to those observed with apomorphine or melanotan-II. The mechanism of action is thought to be similar to the effects on female genital flow ie CNS potentiation of the descending neuronal pathways that control penile erection.

Male New Zealand rabbits = experiment: Pelvic nerve-stimulated penile intracavernosal pressure, anaesthetised rabbit model of erection; assay type: in vivo; settings: Compound 3 (10 mg/kg sc) concomitant with selective PDE5 inhibitor (1 mg/kg iv), compared with same dose of Compound 3 alone
Procedure: as §1, with “Male” for “Female”, “(˜2.5” for “(2.5”, “i.m.,” for “im.,”, “anaesthesia. The left jugular vein was exposed, isolated and then cannulated with a PVC catheter (17G) for the infusion of drugs and compounds.” for “anaesthesia.”
The left groin area of the rabbit was shaved and a vertical incision was made approximately 5 cm in length along the thigh. […] Systolic and diastolic pressures were measured, and the mean arterial pressure calculated using the formula (diastolic ×2+systolic)[…]. Heart rate was measured via the pulse oxymeter and Po-ne-mah data acquisition software system (Ponemah Physiology Platform, Gould Instrument Systems Inc). […]

human NMB receptor (BB1) = biological target: T1, human NMB receptor (BB1) (Homo sapiens, UniProt P28336); experiment: BB1 binding assay ([125I][Tyr4]bombesin, CHO-K1 cell membranes)
T1 construct: expressed in transfected cells; host or cells: CHO-K1
T1 sequence (P28336 whole entry): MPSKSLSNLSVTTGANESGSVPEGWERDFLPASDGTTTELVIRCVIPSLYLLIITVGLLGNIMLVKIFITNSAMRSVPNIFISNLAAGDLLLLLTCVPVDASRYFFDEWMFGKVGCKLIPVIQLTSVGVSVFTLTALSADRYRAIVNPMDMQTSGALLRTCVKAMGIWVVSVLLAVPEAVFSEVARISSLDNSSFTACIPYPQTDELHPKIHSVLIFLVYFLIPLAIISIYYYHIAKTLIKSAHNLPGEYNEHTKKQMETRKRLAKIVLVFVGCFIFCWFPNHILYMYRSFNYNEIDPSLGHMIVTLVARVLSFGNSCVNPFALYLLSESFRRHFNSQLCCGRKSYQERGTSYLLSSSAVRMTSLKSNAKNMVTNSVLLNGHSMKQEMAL
Procedure: (§2) In the following experiments, measurement of BB1 and BB2 binding was as follows. CHO-K1 cells stably expressing cloned human NMB (for (BB1 assay) and GRP receptors (for BB2 assay) were routinely grown in Ham's F12 culture medium supplemented with 10% foetal calf serum and 2 mM glutamine. For binding experiments, cells were harvested by trypsinization, and stored frozen at −70° C. in Ham's F12 culture medium containing 5% DMSO until required. On the day of use, cells were thawed rapidly, diluted with an excess of culture medium, and centrifuged for 5 minutes at 2000 g. Cells were resuspended in 50 mM Tris-HCl assay buffer (pH 7.4 at 21° C., containing 0.02% BSA, 40 μg/mL bacitracin, 2 μg/mL chymostatin, 4 μg/mL leupeptin, and 2 μM phosphoramidon), counted, and polytronned (setting 5, 10 sec) before centrifuging for 10 minutes at 28,000 g. The final pellet was resuspended in assay buffer to a final cell concentration of 1.5×10^5/mL. For binding assays, 200 μL aliquots of membranes were incubated with [^125I][Tyr^4]bombesin (<0.1 nM) in the presence and absence of test compounds (final assay volume 250 μL) for 60 minutes and 90 minutes for NMB and GRP receptors, respectively. Nonspecific binding was defined by 1 μM bombesin. Assays were terminated by rapid filtration under vacuum onto Whatman GF/C filters presoaked in 0.2% PEI for >2 hours, and washed 50 mM Tris-HC (pH 6.9 at 21° C.; 6×1 mL). Radioactivity bound was determined using a gamma counter.
(§3) All competition data was analysed using nonlinear regression utilizing iterative curve-plotting procedures in Prism® (GraphPad Software Inc., San Diego, USA). IC50 values were corrected to Ki values using the Cheng-Prusoff equation (Cheng Y., PrusoffW. H., Biochem. Pharmacol. 22: 3099-3108, 1973).

human GRP receptor (BB2) = biological target: T2, human GRP receptor (BB2) (Homo sapiens, UniProt P30550); experiment: BB2 binding assay ([125I][Tyr4]bombesin, CHO-K1 cell membranes)
T2 construct: expressed in transfected cells; host or cells: CHO-K1
T2 sequence (P30550 whole entry): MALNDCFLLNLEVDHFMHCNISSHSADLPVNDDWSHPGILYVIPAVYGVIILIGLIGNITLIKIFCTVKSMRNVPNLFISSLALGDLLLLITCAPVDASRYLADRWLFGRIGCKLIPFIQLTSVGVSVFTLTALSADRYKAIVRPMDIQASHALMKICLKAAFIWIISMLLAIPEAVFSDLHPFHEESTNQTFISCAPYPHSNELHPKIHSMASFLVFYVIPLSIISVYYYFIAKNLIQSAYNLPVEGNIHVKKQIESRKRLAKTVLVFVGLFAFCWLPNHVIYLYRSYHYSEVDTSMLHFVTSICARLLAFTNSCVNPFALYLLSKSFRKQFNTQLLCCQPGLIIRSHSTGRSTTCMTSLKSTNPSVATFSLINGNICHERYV
Procedure: as §2, §3

| IC50 (human NMB receptor (BB1)) | IC50 (human GRP receptor (BB2)) | SMILES | pelvic-nerve stimulated (PNS) increases in genital (vaginal and clitoral) blood flow [1] | penile erection (erectile response) (conscious male rat; Compound 1 10 mg/kg sc, Compound 3 15 mg/kg sc, conscious rat model) | intracavernosal pressure (conscious male rat; one hour after 10 mg/kg sc Compound 1, 45 minutes after 15 mg/kg sc compound 3, conscious rat) | pelvic nerve-stimulated intracavernosal pressure (ICP), combination with PDE5 inhibitor (Male New Zealand rabbits) |
| --- | --- | --- | --- | --- | --- | --- |
|  |  | C[C@@](Cc1c[nH]c2ccccc12)(NC(=O)Nc1ccc([N+](=O)[O-])cc1)C(=O)NCC1(c2ccc(N)cc2)CCCCC1 [Compound 3, (2S)-N-{[1-(4-aminophenyl)cyclohexyl]methyl}-3-(1H-indol-3-yl)-2-methyl-2-{[(4-nitroanilino)carbonyl]amino}propanamide] | potent enhancer | pro-erectile | significant increases in intracavernosal pressure | marked enhancement |
| 208 nM | 1960 nM | C[C@@](Cc1c[nH]c2ccccc12)(NS(=O)(=O)c1cccc([N+](=O)[O-])c1)C(=O)NCC1(c2ccccn2)CCCCC1 [Example 121] |  |  |  |  |
| 440 nM | 2250 nM | C[C@@](Cc1c[nH]c2ccccc12)(NS(=O)(=O)c1cccc(C(F)(F)F)c1)C(=O)NCC1(c2ccccn2)CCCCC1 [Example 124] |  |  |  |  |
| 284 nM | 1220 nM | C[C@@](Cc1c[nH]c2ccccc12)(NS(=O)(=O)c1ccc(F)c(Cl)c1)C(=O)NCC1(c2ccccn2)CCCCC1 [Example 156] |  |  |  |  |
